Source: patent EP0834302A1, “Compositions comprising glutathione liposomes” (Boehringer Ingelheim Limited, priority 1996, dated 1998)

Experiments:
[1] = Depth of glutathione penetration into the skin: tape stripping with DPPH anti-free radical assay
Method: The depth of glutathione penetration into the skin was determined by comparing two different galenic forms: free glutathione in solution (FG) and glutathione encapsulated in a liposome (LG). Since glutathione is a highly reactive free radical scavenger, its presence even in small quantities can be detected by spectroscopic methods.
Gluthione preparations are applied to the skin, and tape strippings are taken after some fixed interval of time. The tape strippings are assayed for anti-free radical activity by DPPH (1,1 Diphenyl-2-picrylhydrazyl) at 8.76 x 10^-3 % (w/v) in methanol) colouration/ discolouration tests (Kim et al. Proc. 17th IFSCC Congress (Yokohama), Vol. 1: 3-14, 1994). […]
On the arms of each volunteer, the 3 test sites were determined in a random way: one site for application of water (negative control), one for application of free glutathione (FG) and one for application of liposome encapsulated glutathione (LG). […]
5 tape strippings were carried out on the control sites after 2µl/cm^2 application of distilled water and a light massage. […] The change in colour was measured on a spectrophotometer at 517nm.
Each test solution was then applied to the designated sites (2µl/cm^2) by slight massaging and left to dry for 30 minutes. […] Colour changes were recorded as described above.

[2] = test system: UVB induced skin erythema; conditions: applied topically in a simple oil-in-water emulsion or as a gel preparation; Int. J. Cos. Sci. 17:91-103, 1995; cited from earlier work

For `N[C@@H](CCC(=O)N[C@@H](CS)C(=O)NCC(=O)O)C(=O)O` [FG, Reduced glutathione], the “Tape strips containing residual scavenger activity, Mean value” ([1]; in vivo) was 1.3 and the depth of penetration ([1]; result in words, presence of DPPH reactive substances on successive strips) was “absence of significant penetration”.
For `N[C@@H](CCC(=O)N[C@@H](CS)C(=O)NCC(=O)O)C(=O)O` [Glutathione], the “inhibiting UVB induced skin erythema” value [2] is listed as “ineffective”.
